Series [1] has as its system RXF-393, renal cancer cell line. Description: NCI HTCL in vitro screen, RXF-393. The class given is cell-based, human. The note with it: log concentration that reduced cell growth by 50%; for GI50: Homo sapiens, RXF 393, read-out: Cytotoxicity log GI50, RXF-393 (converted). From the text:
(§1) This assay involves determination of a test agent's effect on growth parameters against a panel of approximately 60 human tumor cell lines, mostly derived from solid tumors.

In series [2] the test system is panel of approximately 60 human tumor cell lines. Description: NCI HTCL in vitro screen, mean over all cell lines. The series is classed as cell-based. The following applies: mean over all 60 cell lines; for GI50: Homo sapiens, read-out: Mean log GI50 (converted). The method, then:
Compounds 1-7 and 13 were tested in National Cancer Institute's HTCL screen (M. Grever et al., Seminars Oncol. 1992, 19, 622-638; A. Monks et al., J. Natl. Cancer Inst. 1991, 83, 757-766). This assay involves determination of a test agent's effect on growth parameters against a panel of approximately 60 human tumor cell lines, mostly derived from solid tumors.

The test system of series [3] is HCT-116, colon cancer cell line. Description: NCI HTCL in vitro screen, HCT116. The note with it: for GI50: Homo sapiens, HCT-116, log concentration that reduced cell growth by 50%, read-out: Cytotoxicity log GI50, HCT116 (converted). The series is classed as cell-based, human.
Source text: as §1

Another series relates to SK-Me15, melanoma. The series can be described thus: NCI HTCL in vitro screen, SK-Me15. The class given is cell-based, human. The note with it: log concentration that reduced cell growth by 50%; for GI50: Homo sapiens, read-out: Cytotoxicity log GI50, SK-Me15 (converted).
Source text: as §1

Series [4] deals with NCI-H226, non-small cell lung cancer cell line. The series can be described thus: NCI HTCL in vitro screen, NCI-H226. The class given is cell-based, human. The note with it: for GI50: Homo sapiens, NCI-H226, log concentration that reduced cell growth by 50%, read-out: Cytotoxicity log GI50, NCI-H226 (converted).
Source text: as §1

Series [5] has as its system SF-268 CNS tumor cell line. Description: NCI HTCL in vitro screen, SF-268. The note with it: Homo sapiens, log concentration that reduced cell growth by 50%, read-out: Cytotoxicity log GI50, SF-268 (converted). The series is classed as cell-based.
Source text: as §1

In series [6] the test system is K-562, leukemia cell line. Description: NCI 60 human tumor cell line (HTCL) in vitro screen, K562. The series is classed as cell-based. The note with it: log concentration that reduced cell growth by 50%, read-out: Cytotoxicity log GI50, K562 (converted).
Source text: as §1

Series [7] has as its system T1, tubulin.
T1 construct: ITP IC50 ± SD; other: 10 μM tubulin; ICB (% inhib ± SD); effect on tubulin polymerization; other: relative to combretastatin A-4; Ha
Description: Inhibition of tubulin polymerization (ITP). The series is classed as biochemical. The note with it: for IC50: 10 μM tubulin, read-out: ITP IC50 ± SD.

Series [8] has as its system SF-295 CNS tumor cell line. Description: NCI HTCL in vitro screen, SF-295. The note with it: for GI50: Homo sapiens, SF-295, log concentration that reduced cell growth by 50%, read-out: Cytotoxicity log GI50, SF-295 (converted). The series is classed as cell-based, human.
Source text: as §1

The test system of series [9] is T1, tubulin. The series can be described thus: Inhibition of [3H]colchicine binding to tubulin (ICB). The note with it: for ICB (% inhib ± SD): 5 μM [3H]colchicine, 1 μM tubulin.
The subject of series [10] is T1, tubulin. The following applies: data from literature (Kuo 1993; Hamel 1996; Xia 1998); read-out: ITP IC50 ± SD; cited from earlier work.
Series [11] deals with OVCAR-3, ovarian cancer cell line. The series can be described thus: NCI HTCL in vitro screen, OVCAR-3. The series is classed as cell-based, human. The note with it: for GI50: Homo sapiens, OVCAR-3, log concentration that reduced cell growth by 50%, read-out: Cytotoxicity log GI50, OVCAR-3 (converted).
Source text: as §1

In series [12] the test system is OVCAR-3 ovarian cell line. The note with it: mice bearing OVCAR-3 tumor; previously reported (background); cited from earlier work.
Series [13] deals with panel of approximately 60 human tumor cell lines. The following applies: previously reported (L. Li et al. 1994); cited from earlier work.
The subject of series [14] is tubulin. The following applies: previously reported (background); read-out: inhibition of tubulin polymerization IC50; cited from earlier work.

Like-named read-outs stand apart in the source and are kept apart here. Bounds are passed on as bounds.

On to `CCOC(=O)COc1cc(-c2ccccc2F)nc2cc3c(cc12)OCO3` [Compound 2, 2′-Fluoro-6,7-(methylenedioxy)-2-phenyl-4-(O-ethylacetate)quinoline], for which the melting point was 119 to 120 °C. Further, the 50% growth inhibitory concentration (GI50) in [1] is above 100 µM. For the same compound, the GI50 in [2] is 79.4 µM. Further, the GI50 in [3] was 72.4 µM. Further, in the series on SK-Me15, melanoma, the GI50 was 72.4 µM. Also, the GI50 in series [4] is above 100 µM. Further, the concentration for 50% growth inhibition (GI50) in series [5] was above 100 µM. The GI50 in series [6] is 38 µM. The IC50 in the series on tubulin [7] was above 40 µM. In addition, the GI50 in series [8] is above 100 µM.

Take `Oc1cc(-c2ccccc2F)nc2ccc(N3CCCC3)cc12` [Compound 13]: the GI50 in series [1] is below 0.01 µM; with SK-Me15, melanoma it was below 0.01 µM; in [5], 0.0389 µM; in series [6] it was 0.0324 µM. In addition, the “Cytotoxicity log GI50, RXF-393” value in series [1] is listed as below −8.00 M. Further, the “Mean log GI50” value in series [2] was −7.62 M. The “ICB (% inhib ± SD)” value with tubulin [9] (1 μM inhibitor) is 76 ± 5 % inhib; with tubulin [9] (5 μM inhibitor) it was 93 ± 1 % inhib. In addition, in the series with tubulin [9] (relative to combretastatin A-4), the “inhibition of [3H]colchicine binding to tubulin” value is recorded as “nearly as active as the highly potent combretastatin A-4”. Besides, the “Cytotoxicity log GI50, SK-Me15” value in the series with SK-Me15, melanoma was below −8.00 M. Besides, the IC50 with tubulin [7] was 0.46 µM.

As for `O=c1[nH]c(C=Cc2ccccc2)nc2ccccc12` [Compound 18, 2-styrylquinazolin-4(3H)-one], the IC50 in the series with tubulin [10] was 5 ± 0.6 µM.

In turn, `O=C(O)CCCOc1cc(-c2ccccc2F)nc2cc3c(cc12)OCO3` [Compound 5, 2′-Fluoro-6,7-(methylenedioxy)-2-phenyl-4-(O-ethyl 4′-butylacetic acid)quinoline] came in with a melting point above 300 °C. The GI50 in series [2] was 4.68 µM. In addition, the 50% inhibitory concentration (IC50) in the series with tubulin [7] came out at 12 ± 3 µM.

With `O=C(O)COc1cc(-c2ccccc2F)nc2cc3c(cc12)OCO3` [Compound 3, 2′-Fluoro-6,7-(methylenedioxy)-2-phenyl-4-(O-acetic acid)quinoline], the melting point was above 300 °C. For the same compound, in [1], the GI50 is above 100 µM. In series [2], the concentration for 50% growth inhibition (GI50) was above 100 µM. Besides, the GI50 in series [3] was above 100 µM. Also, the concentration for 50% growth inhibition (GI50) with SK-Me15, melanoma was above 100 µM. For the same compound, the GI50 in series [11] was above 100 µM. The GI50 in series [4] is above 100 µM. The GI50 in series [5] was above 100 µM. In [6], the GI50 was above 100 µM. Further, the IC50 in the series with tubulin [7] was above 20 µM. Moreover, the 50% growth inhibitory concentration (GI50) in series [8] is above 100 µM.

Turning to `CCOC(=O)CCCOc1cc(-c2ccccc2F)nc2cc3c(cc12)OCO3` [Compound 4, 2′-Fluoro-6,7-(methylenedioxy)-2-phenyl-4-(O-ethyl 4′-butyrate)quinoline], the melting point lay in the range of 93 to 94 °C. Further, the GI50 in series [2] is 47.9 µM. The GI50 in [3] was above 100 µM. Moreover, in the series with SK-Me15, melanoma, the GI50 was 57.5 µM. In addition, the GI50 in series [5] is above 100 µM. Also, the IC50 with tubulin [7] was above 40 µM.

In the case of `CC(C)(C)OC(=O)n1c(-c2ccccc2F)cc(=O)c2cc3c(cc21)OCO3` [Compound 7, N-Boc-2′-fluoro-6,7-(methylenedioxy)-2-phenyl-4-quinolone], the GI50 in series [1] was above 100 µM; in series [2], 0.589 µM; in series [3], 0.0447 µM; in series [11] it was 0.0324 µM; in series [4], 0.0251 µM; in series [6] it was above 100 µM. Moreover, the GI50 in [8] is 0.117 µM. Also, the “cytotoxicity relative to 1, HCT-116” value in series [3] (relative to compound 1) was “equipotent with 1”. Further, the “cytotoxicity relative to 1, OVCAR-3” value in series [11] (relative to compound 1) is “equipotent with 1”. Also, the “fold more active than 1 against NCI-H226” value in [4] (relative to compound 1) is recorded as around 20 fold. Also, in the series on tubulin [7], the “effect on tubulin polymerization” value is given as “moderate activity”. The IC50 in the series with tubulin [7] came to 3.2 ± 1 µM. For the same compound, the “cytotoxicity relative to 1, SF-295” value in series [8] (relative to compound 1) was “less active than 1”.

On to `O=c1cc(-c2ccccc2F)[nH]c2cc3c(cc12)OCO3` [Compound 1, 2′-Fluoro-6,7-(methylenedioxy)-2-phenyl-4-quinolone], for which the “prolonging the life span of mice bearing the tumor” value in series [12] is 130%. Moreover, the GI50 in [2] is 0.135 µM; in series [3], 0.0603 µM; in the series on SK-Me15, melanoma, 0.0209 µM; in [11], 0.0813 µM; in [4] it was 0.447 µM; in series [5] it was 2.29 µM. In series [8], the GI50 was 0.055 µM. Besides, the “ICB (% inhib ± SD)” value in the series on tubulin [9] (5 μM inhibitor) was determined as 39 ± 2 % inhib. Moreover, the IC50 was 0.68 ± 0.02 µM with tubulin [7] and 0.85 µM with tubulin [14]. Further, in series [13], the “average log G150 value in the HTCL screen” value is on record as −6.47.

As to `Fc1ccccc1-c1cc(=S)c2cc3c(cc2[nH]1)OCO3` [Compound 6, 2′-Fluoro-6,7-(methylenedioxy)-2-phenylquino-4-thione], the GI50 in series [1] was 29.5 µM; in series [2], 15.5 µM; in series [3] it was 5.5 µM; with SK-Me15, melanoma it was 4.07 µM; in series [11] it was 21.4 µM; in [4] it was 16.6 µM. Further, the 50% growth inhibitory concentration (GI50) in series [5] is 20 µM; in series [6], 56.2 µM; in series [8], 11.7 µM.

The term GI50 denotes the concentration at which growth is held to half of that of the control. As a reminder, the melting point is the temperature of the solid-liquid transition. The IC50 is the concentration that gives 50% inhibition.

Source of the values: patent US6569870B1, “Fluorinated quinolones as antimitotic and antitumor agents” (The University of North Carolina at Chapel Hill, priority 2000, dated 2003).
